Consider 16 compounds from patent US8158810B2 (Gilead Sciences, Inc., priority 2006, dated 2012).

Several values for one entry are separate records, joined by “and”; a condition that tells them apart may be missing. Equal values may be shown once.

Holding throughout (type): biochemical
The target of assay [1] is T1, hALDH2 (recombinant human mitochondria ALDH) (Homo sapiens, UniProt P05091).
T1 sequence (P05091 18-517): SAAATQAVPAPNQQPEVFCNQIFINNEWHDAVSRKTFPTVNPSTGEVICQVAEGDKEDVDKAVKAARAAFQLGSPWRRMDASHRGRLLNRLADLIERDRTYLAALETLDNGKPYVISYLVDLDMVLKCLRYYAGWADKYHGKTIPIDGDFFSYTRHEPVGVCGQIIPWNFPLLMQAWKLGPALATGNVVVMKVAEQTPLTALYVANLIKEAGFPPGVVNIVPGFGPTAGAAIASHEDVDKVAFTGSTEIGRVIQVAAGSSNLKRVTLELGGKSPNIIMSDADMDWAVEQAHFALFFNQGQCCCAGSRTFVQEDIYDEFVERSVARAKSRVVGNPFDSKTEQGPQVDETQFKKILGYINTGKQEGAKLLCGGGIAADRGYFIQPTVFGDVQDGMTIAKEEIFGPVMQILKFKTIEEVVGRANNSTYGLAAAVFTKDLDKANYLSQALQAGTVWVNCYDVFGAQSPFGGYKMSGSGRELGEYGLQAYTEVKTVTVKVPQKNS
Description: ALDH2 inhibition assay. The note with it: for hALDH2 inhibition at 1 μM: printed in the IC50 hALDH2 column. The procedure: ALDH2 inhibition assays were performed in sodium phosphate buffer (50 mM, pH 7.4) containing 1.2 mM NAD^+ (Sigma N7004), 1 nM hALDH2 (recombinant human mitochondria ALDH), various concentrations of test compounds (from 0.03 nM to […]), and 0.15 mM freshly prepared formaldehyde solution (Ladd Research 20295). Reactions were initiated by the addition of formaldehyde and rates were recorded by monitoring NADH formation in a temperature controlled (25° C.) FluoroMax-2 Fluorimeter with excitation and emission wavelengths set at 340 and 460 nm, respectively. […] Normally, IC50 values were determined by fitting concentration-inhibition data to sigmoidal dose-response curves with two-floating parameters: IC50 and Hill coefficient. When tight binding situation was suspected, apparent Ki values were estimated by fitting dose-response data to Morrison's equation [Methods in Enzymology 63, 437-467, 1979].

In the next assay the target is T2, hMAO-A (Homo sapiens, UniProt P21397).
T2 construct: purchased Sigma M7316
T2 sequence (P21397 1-527): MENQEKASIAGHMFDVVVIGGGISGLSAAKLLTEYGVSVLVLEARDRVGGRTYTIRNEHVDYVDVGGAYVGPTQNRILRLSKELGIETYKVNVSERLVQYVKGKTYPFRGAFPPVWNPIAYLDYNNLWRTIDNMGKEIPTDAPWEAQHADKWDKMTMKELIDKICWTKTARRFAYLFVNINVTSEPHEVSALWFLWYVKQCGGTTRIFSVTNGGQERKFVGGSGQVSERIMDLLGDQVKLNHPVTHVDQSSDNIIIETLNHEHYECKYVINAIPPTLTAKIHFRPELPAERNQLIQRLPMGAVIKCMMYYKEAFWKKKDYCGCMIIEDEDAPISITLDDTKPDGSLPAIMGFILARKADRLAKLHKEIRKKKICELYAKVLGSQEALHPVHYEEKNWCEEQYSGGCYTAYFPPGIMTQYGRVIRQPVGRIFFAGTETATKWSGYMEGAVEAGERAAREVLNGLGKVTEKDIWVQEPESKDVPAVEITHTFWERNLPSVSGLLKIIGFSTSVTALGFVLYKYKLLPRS
Description: MAO-A inhibition assay. The note with it: No = no inhibition; for hMAO-A inhibition up to 10 μM: printed in the IC50 hMAO-A column. In outline:
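Human MAO-A (0.6 U/ml) or MAO-B (2.5 U/ml) in 0.1 M potassium phosphate pH 7.5 with 0.5 mM tyramine, 0.12 mM Amplex Red and HRP; compounds at 0.1 nM-10 μM, 30 min at 37 °C, absorbance at 570 nm. Background set with clorgyline (MAO-A) or deprenyl (MAO-B); IC50 from sigmoidal fits.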

In another assay the target is T3, hMAO-B (Homo sapiens, UniProt P27338).
T3 construct: purchased Sigma M7441
T3 sequence (P27338 1-520): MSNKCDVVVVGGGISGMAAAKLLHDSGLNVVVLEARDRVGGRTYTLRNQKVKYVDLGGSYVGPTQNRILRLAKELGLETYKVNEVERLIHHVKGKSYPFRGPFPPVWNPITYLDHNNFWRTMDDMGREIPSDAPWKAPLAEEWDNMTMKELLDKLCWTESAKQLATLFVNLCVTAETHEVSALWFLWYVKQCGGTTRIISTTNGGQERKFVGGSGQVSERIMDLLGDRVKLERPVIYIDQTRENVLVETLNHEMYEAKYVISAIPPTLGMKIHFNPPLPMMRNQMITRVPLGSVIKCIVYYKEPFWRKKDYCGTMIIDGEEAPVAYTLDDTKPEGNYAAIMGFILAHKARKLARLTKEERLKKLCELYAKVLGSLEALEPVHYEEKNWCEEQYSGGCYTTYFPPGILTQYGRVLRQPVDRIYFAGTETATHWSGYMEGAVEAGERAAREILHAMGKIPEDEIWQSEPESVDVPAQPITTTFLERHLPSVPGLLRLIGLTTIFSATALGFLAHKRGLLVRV
Description: MAO-B inhibition assay. The conditions noted are these: No = no inhibition; for hMAO-B inhibition at 10 μM / inhibition at 10 µM: printed in the IC50 hMAO-B column. The procedure: MAO-A (Sigma M7316) and MAO-B (Sigma M7441) inhibition assays were conducted in 96-well micro-plates according to the method described by Zhou et al. [Analytical Biochemistry 253, 169-174, 1997]. […] Reactions were initiated by the addition of a pre-mixed solution of tyramine, horseradish peroxidase and Amplex Red, and were allowed to proceed at 37° C. for 30 min. Enzyme activities were determined by measuring absorbance at 570 nm (SpectralMax Plate reader), absorbance of oxidized Amplex Red generated by this horseradish peroxidase-coupled reaction. Nonspecifically formed products were determined in the presence of 2 and 10 µM clorgyline and deprenyl for MAO-A and MAO-B, respectively. IC50 values were determined by fitting concentration-inhibition data to sigmoidal dose-response curves with two-floating parameters: IC50 and Hill coefficient.

What is called IC50 is the concentration that gives 50% inhibition. The term inhibition denotes the share of the control response that was lost under treatment. Read a low inhibition as a response near the control.

Take “7-{2-[4-(3-chlorophenyl)piperazinyl]ethoxy}-3-(4-hydroxyphenyl)chromen-4-one [PT-123]”: in assay [1], the IC50 is 11 nM. Besides, the “hMAO-A inhibition up to 10 μM” value on hMAO-A was “No”.
Turning to “3-(4-hydroxyphenyl)-7-[(5-(4-pyridyl)(1,2,4-oxadiazol-3-yl))ethoxy]chromen-4-one [PT-117]”, the IC50 in assay [1] stood at 98 nM. Besides, on hMAO-A, the “hMAO-A inhibition up to 10 μM” value is reported as “No”. On hMAO-B, the “hMAO-B inhibition at 10 μM” value was “No”.
For the compound `O=c1c(-c2ccc(O)cc2)coc2cc(OCCc3cccc(C(F)(F)F)c3)ccc12` [PT-59, 3-(4-hydroxyphenyl)-7-{[3-(trifluoromethyl)phenyl]ethoxy}chromen-4-one], in assay [1], the IC50 is 670 nM. For the same compound, on hMAO-A, the “hMAO-A inhibition up to 10 μM” value was “No”. Also, the “hMAO-B inhibition at 10 μM” value at hMAO-B came to 24%.
For the compound `O=c1c(-c2ccc(O)cc2)coc2cc(OCCc3n[nH]cc3-c3ccc(Cl)cc3)ccc12` [PT-51, 7-{2-[4-(4-chlorophenyl)pyrazolyl]ethoxy}-3-(4-hydroxyphenyl)chromen-4-one], the IC50 in assay [1] amounted to 110 nM.
Turning to `O=c1c(-c2ccc(O)cc2)coc2cc(OCCc3nnc(-c4ccc(F)cc4)o3)ccc12` [PT-112, 7-{[5-(4-fluorophenyl)(1,3,4-oxadiazol-2-yl)]echoxy}-3-(4-hydroxyphenyl)chromen-4-one], the IC50 in assay [1] was 5 nM. In addition, the “hMAO-A inhibition up to 10 μM” value at hMAO-A is given as “No”. In addition, the “hMAO-B inhibition at 10 μM” value on hMAO-B is given as “No”.
`CC(Oc1ccc2c(=O)c(-c3ccc(O)cc3)coc2c1)c1nnc(-c2cccnc2)o1` (centres unmarked): the IC50 in assay [1] is 17 nM and 15 nM. Moreover, on hMAO-A, the “hMAO-A inhibition up to 10 μM” value is “No”. At hMAO-B, this compound came in with an inhibition at 10 µM of 30%.
In the case of “3-(4-hydroxyphenyl)-7-(2-{4-[3-(trifluoromethyl)phenyl]piperazinyl}ethoxy)chromen-4-one [PT-124]”, the IC50 in assay [1] amounted to 18 nM. Moreover, the “hMAO-A inhibition up to 10 μM” value on hMAO-A was “No”. Besides, on hMAO-B, the “hMAO-B inhibition at 10 μM” value is 21%.
Consider `O=c1c(-c2cn[nH]c2)coc2cc(OCc3noc(-c4cc(F)cc(C(F)(F)F)c4)n3)ccc12` [PT-75, 7-({5-[3-fluoro-5-(trifluoromethyl)phenyl](1,2,4-oxadiazol-3-yl)}methoxy)-3-(5-hydropyrazol-4-yl)chromen-4-one], for which the “hALDH2 inhibition at 1 μM” value in assay [1] was determined as 14%. The “hMAO-A inhibition up to 10 μM” value at hMAO-A is reported as “No”. Further, the “hMAO-B inhibition at 10 μM” value on hMAO-B is “No”.
Take `N#Cc1cc(-c2coc3cc(OCc4noc(-c5cc(F)cc(C(F)(F)F)c5)n4)ccc3c2=O)ccc1F` [PT-9, 2-fluoro-5-[7-({5-[5-fluoro-3-(trifluoromethyl)phenyl](1,2,4-oxadiazol-3-yl)}methoxy)-4-oxochromen-3-yl]benzenecarbonitrile]: the “hALDH2 inhibition at 1 μM” value in assay [1] is given as 25%.
On to `O=c1c(-c2ccc(O)cc2)coc2cc(OCCCc3n[nH]cc3-c3ccc(Cl)cc3)ccc12` [PT-106, 7-{3-[4-(4-chlorophenyl)pyrazolyl]propoxy}-3-(4-hydroxyphenyl)chromen-4-one], for which the IC50 in assay [1] was determined as 110 nM.
On to `CC(C)OC(=O)c1cccc(COc2ccc3c(=O)c(-c4ccc(O)cc4)coc3c2)c1` [PT-35, methylethyl 3-{[3-(4-hydroxyphenyl)-4-oxochromen-7-yloxy]methyl}benzoate], for which, in assay [1], the IC50 amounted to 20 nM. At hMAO-A, the “hMAO-A inhibition up to 10 μM” value is “No”. Besides, the “hMAO-B inhibition up to 10 μM” value at hMAO-B (up to 10 μM) is given as “No”.
Consider “ethyl 3-[7-({3-[3-fluoro-5-(trifluoromethyl)phenyl](1,2,4-oxadiazol-5-yl)}ethoxy)-4-oxochromen-3-yl]benzoate [PT-76]”, for which the IC50 in assay [1] was determined as 63 nM. Also, the “hMAO-A inhibition up to 10 μM” value on hMAO-A is on record as “No”. Moreover, the “hMAO-B inhibition at 10 μM” value on hMAO-B was found to be 21%.
Consider `O=c1c(-c2ccc(O)cc2)coc2cc(OCc3coc(-c4cccc(C(F)(F)F)c4)n3)ccc12` [PT-12, 3-(4-hydroxyphenyl)-7-({2-[3-(trifluoromethyl)phenyl](1,3-oxazol-4-yl)}methoxy)chromen-4-one], for which, at hMAO-A, the “hMAO-A inhibition up to 10 μM” value is given as “No”. At hMAO-B, the “hMAO-B inhibition at 10 μM” value is “No”.
On to `CC(Oc1ccc2c(=O)c(-c3ccc(O)cc3)coc2c1)c1noc(-c2cc(F)cc(C(F)(F)F)c2)n1` (centres unmarked), for which, in assay [1], the IC50 is 48 nM. The “hMAO-A inhibition up to 10 μM” value at hMAO-A is recorded as “No”. The inhibition at 10 µM against hMAO-B was 18%.
Take `O=c1c(-c2ccc(O)cc2)coc2cc(OCc3noc(-c4ccccc4)n3)ccc12` [PT-24, 3-(4-hydroxyphenyl)-7-[(5-phenyl(1,2,4-oxadiazol-3-yl))methoxy]chromen-4-one]: the “hMAO-A inhibition up to 40 μM” value on hMAO-A (up to 40 μM) is “No”. Also, the “hMAO-B inhibition up to 40 μM” value at hMAO-B (up to 40 μM) is “No”.
With “3-(4-hydroxyphenyl)-7-[(6-pyrazolyl(3-pyridyl))methoxy]chromen-4-one [PT-52]”, the IC50 in assay [1] worked out at 10 nM. In addition, on hMAO-A, the “hMAO-A inhibition up to 10 μM” value is “No”.
